# According to ChEMBL document CHEMBL3217463, “Design, synthesis and biological evaluation of -lactam hydroxamate based TACE inhibitors” (Medchemcomm, 2011):
# Experiments:
# Rattus norvegicus [1] = assay: Toxicity in Wistar rat assessed as food consumption at 100 mg/kg, po bid for 28 days; type: organism-based; set-up: dose 100 mg/kg, route oral; conditions: in vivo, 672 h
# Rattus norvegicus [2] = assay: Toxicity in Wistar rat assessed as survival at 100 mg/kg, po bid for 28 days; type: organism-based; set-up: dose 100 mg/kg, route oral; conditions: in vivo, 672 h
# [3] = biological target: T1, Disintegrin and metalloproteinase domain-containing protein 17 (Homo sapiens, UniProt P78536); assay: Ratio of IC50 for human catalytic domain of TACE to IC50 for MMP2 (unknown origin)
# [4] = biological target: T1, Disintegrin and metalloproteinase domain-containing protein 17; assay: Ratio of IC50 for human catalytic domain of TACE to IC50 for MMP9 (unknown origin)
# Mus musculus = assay: Antiinflammatory activity in po dosed Swiss Albino mouse assessed as inhibition of LPS-induced TNFalpha secretion in blood treated 0.5 hrs before LPS and measured after 1 hr of LPS stimulus by ELISA; type: functional
# Interstitial collagenase = biological target: T2, Interstitial collagenase (Homo sapiens, UniProt P03956); assay: Inhibition of MMP1 (unknown origin) by fluorescence-based FRET assay
# T2 sequence (P03956 whole entry): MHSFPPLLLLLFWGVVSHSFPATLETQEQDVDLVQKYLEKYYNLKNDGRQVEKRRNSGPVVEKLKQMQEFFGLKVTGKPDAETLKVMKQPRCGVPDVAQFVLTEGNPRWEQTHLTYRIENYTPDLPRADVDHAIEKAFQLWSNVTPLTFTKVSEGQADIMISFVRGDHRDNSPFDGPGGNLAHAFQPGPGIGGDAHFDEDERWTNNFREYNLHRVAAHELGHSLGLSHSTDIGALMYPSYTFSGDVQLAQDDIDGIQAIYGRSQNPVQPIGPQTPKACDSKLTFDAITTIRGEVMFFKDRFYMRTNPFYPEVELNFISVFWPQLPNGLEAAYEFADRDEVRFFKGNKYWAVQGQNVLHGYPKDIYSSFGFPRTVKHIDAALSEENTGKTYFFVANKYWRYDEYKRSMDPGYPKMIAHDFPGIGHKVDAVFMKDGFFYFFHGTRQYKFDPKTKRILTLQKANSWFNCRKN
# Rattus norvegicus [5] = assay: Toxicity in Wistar rat assessed as alkaline phosphatase at 100 mg/kg, po bid for 28 days (reference value: 134.66 +/- 5.3 U/L); type: organism-based; set-up: dose 100 mg/kg, route oral; conditions: in vivo, 672 h
# [6] = AUC in Wistar rat at 5 mg/kg, iv; type: ADME, organism-based; set-up: dose 5 mg/kg, route intravenous; conditions: plasma
# Rattus norvegicus [7] = assay: Toxicity in Wistar rat assessed as relative heart weight at 100 mg/kg, po bid for 28 days (reference value: 0.345 +/- 0.007 %); type: organism-based; set-up: dose 100 mg/kg, route oral; conditions: in vivo, 672 h
# [8] = biological target: T1, Disintegrin and metalloproteinase domain-containing protein 17; assay: Ratio of IC50 for human catalytic domain of TACE to IC50 for MMP7 (unknown origin)
# Stromelysin-1 = Stromelysin-1 (Homo sapiens, UniProt P08254); assay: Inhibition of MMP3 (unknown origin) by fluorescence-based FRET assay
# Stromelysin-1, sequence (P08254 whole entry): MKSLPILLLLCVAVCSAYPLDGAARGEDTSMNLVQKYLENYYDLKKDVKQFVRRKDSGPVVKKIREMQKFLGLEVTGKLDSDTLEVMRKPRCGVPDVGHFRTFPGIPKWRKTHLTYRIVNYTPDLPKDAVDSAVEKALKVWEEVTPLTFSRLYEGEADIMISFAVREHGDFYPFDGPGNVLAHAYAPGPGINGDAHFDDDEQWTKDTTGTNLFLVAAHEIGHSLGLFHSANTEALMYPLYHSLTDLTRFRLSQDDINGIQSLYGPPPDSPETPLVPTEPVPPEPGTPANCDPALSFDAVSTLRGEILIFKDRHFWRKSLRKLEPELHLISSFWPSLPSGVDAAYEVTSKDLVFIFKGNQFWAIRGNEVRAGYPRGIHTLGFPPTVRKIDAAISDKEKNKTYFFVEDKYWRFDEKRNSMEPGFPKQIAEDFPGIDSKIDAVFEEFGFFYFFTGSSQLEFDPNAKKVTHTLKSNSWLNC
# T1 sequence (P78536 whole entry, the tested form may be a part): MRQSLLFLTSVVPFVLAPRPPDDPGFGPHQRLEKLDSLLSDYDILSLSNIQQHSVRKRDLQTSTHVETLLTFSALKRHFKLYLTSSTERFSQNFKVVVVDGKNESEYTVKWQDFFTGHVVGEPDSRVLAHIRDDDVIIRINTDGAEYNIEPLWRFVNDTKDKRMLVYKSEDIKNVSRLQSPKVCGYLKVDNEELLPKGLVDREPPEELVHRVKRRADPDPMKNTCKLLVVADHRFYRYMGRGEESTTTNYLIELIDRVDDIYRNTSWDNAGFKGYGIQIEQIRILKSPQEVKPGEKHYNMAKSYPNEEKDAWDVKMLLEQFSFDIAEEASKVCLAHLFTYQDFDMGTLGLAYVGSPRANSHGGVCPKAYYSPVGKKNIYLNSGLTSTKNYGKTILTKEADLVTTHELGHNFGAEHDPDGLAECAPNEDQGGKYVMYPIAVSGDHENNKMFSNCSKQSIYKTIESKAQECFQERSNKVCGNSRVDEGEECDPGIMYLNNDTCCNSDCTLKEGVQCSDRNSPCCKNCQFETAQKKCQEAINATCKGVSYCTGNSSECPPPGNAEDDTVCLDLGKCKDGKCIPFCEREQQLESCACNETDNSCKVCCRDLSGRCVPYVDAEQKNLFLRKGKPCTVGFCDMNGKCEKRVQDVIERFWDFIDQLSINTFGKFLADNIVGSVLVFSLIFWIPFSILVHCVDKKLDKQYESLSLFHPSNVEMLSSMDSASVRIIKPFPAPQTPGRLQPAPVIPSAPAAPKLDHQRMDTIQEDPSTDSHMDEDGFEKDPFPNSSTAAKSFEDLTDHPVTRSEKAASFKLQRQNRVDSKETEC
smiles,measurement,setting,value
COCCc1cc(COc2ccc([C@]3(N)CCN([C@H](CC(C)C)C(=O)NO)C3=O)cc2)c2ccccc2n1,Activity,Rattus norvegicus [1],Non-toxic
same,Activity,Rattus norvegicus [2],Non-toxic
same,Ratio IC50,[3],> 500
same,Ratio IC50,[4],> 500
same,ED50,Mus musculus,3.1 mg/kg
same,IC50,Interstitial collagenase,1.06 µM
same,Activity,Rattus norvegicus [5],121.2 U/L
same,AUC,[6],19700 ng·h/mL
same,Activity,Rattus norvegicus [7],0.358%
same,Ratio IC50,[8],> 500
same,IC50,Stromelysin-1,1.02 µM
